Assay results taken from patent US7057052B2, “Heterocyclic quinones as pharmaceutical agents” (Duke University, priority 2002, dated 2006).
Read-outs that look alike come from different tables or passages of the source.

Assays:
Type in all cases: biochemical
[1] = target: T1, Cdc25A (Homo sapiens, UniProt P30304); assay: Cdc25A phosphatase inhibition screen at 50 μM; conditions: for inhibition at 50 µM: read-out: Percent Inhibition at 50 uM compound, Cdc25 A
T1 sequence (P30304 1-524): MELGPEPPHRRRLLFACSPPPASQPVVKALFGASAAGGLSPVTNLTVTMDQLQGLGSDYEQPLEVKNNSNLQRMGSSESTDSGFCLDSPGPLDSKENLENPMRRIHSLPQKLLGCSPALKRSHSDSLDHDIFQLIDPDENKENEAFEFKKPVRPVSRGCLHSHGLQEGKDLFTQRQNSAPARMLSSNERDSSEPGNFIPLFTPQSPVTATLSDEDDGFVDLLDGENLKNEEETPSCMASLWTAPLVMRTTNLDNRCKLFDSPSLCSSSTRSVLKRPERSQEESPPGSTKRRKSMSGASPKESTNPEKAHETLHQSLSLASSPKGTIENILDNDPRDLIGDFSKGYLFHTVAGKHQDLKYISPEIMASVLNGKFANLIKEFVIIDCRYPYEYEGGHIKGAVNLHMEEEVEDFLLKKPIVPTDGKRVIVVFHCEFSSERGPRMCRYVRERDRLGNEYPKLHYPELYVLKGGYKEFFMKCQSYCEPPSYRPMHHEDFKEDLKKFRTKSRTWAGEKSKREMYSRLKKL
Experimental: (§1) Using procedures known to those skilled in the art, the compounds listed in Table 3 were screened against Cdc25A, Cdc25B, and Cdc25C at 50 μM. […] To analyze these effects further, the compounds were then screened against Cdc25B in a 3 pt. IC-50, using 1, 7 and 50 μM. Several of the compounds were also screened with an 8 pt. IC-50 process, using 0.1–10 μM, allowing determination of Hill slopes.

[2] = target: T2, Cdc25B (Homo sapiens, UniProt P30305); assay: Cdc25B phosphatase inhibition (50 μM screen, 3 pt. and 8 pt. IC-50); conditions: for IC50: Cdc25B; for inhibition at 50 µM: read-out: Percent Inhibition at 50 uM compound, Cdc25 B
T2 sequence (P30305 1-580): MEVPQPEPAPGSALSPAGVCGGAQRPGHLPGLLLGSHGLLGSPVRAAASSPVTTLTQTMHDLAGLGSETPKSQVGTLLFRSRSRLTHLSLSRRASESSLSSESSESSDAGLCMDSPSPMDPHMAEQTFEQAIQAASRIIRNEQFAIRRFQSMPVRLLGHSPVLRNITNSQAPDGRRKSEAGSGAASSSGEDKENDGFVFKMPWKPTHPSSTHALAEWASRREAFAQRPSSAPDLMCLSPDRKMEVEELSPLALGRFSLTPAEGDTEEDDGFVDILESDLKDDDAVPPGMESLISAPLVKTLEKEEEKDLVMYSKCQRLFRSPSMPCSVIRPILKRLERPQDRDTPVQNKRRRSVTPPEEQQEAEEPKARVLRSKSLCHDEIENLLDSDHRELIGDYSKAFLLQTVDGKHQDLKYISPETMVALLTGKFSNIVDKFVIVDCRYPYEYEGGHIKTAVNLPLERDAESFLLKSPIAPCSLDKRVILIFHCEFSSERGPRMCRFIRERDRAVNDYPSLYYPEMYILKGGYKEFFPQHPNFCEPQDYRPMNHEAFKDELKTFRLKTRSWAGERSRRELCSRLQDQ
Experimental: as §1

[3] = target: T3, Cdc25C (Homo sapiens, UniProt P30307); assay: Cdc25C phosphatase inhibition screen at 50 μM; conditions: for inhibition at 50 µM: read-out: Percent Inhibition at 50 uM compound, Cdc25 C
T3 sequence (P30307 1-473): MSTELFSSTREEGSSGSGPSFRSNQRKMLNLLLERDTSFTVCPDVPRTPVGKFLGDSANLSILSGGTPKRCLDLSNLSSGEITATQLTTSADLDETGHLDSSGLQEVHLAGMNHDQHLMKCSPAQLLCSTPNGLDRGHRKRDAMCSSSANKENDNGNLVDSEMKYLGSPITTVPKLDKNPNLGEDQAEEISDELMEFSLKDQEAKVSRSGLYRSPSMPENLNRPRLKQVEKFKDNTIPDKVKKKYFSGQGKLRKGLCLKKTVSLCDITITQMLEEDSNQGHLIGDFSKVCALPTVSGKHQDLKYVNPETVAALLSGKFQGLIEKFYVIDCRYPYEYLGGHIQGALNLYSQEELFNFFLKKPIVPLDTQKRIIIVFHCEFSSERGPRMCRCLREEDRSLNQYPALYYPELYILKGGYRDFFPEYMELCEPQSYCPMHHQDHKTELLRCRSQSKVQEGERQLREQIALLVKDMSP
Experimental: as §1

[4] = 3 pt. IC-50 using 1, 7 and 50 μM, read-out: IC50 (3 pt)
[5] = 8 pt. IC-50 using 0.1–10 μM, read-out: IC50 (8 pt)

| SMILES | inhibition at 50 µM [1] | IC50 [2, 4] | inhibition at 50 µM [2] | inhibition at 50 µM [3] | IC50 [2, 5] | Percent Inhibition at 50 uM compound, Cdc25 A ([1]; 50 uM compound) | Percent Inhibition at 50 uM compound, Cdc25 B ([2]; 50 uM compound) | Percent Inhibition at 50 uM compound, Cdc25 C ([3]; 50 uM compound) |
| --- | --- | --- | --- | --- | --- | --- | --- | --- |
| O=C1C=C(O)C(=O)C(c2c[nH]c3cc(Cl)ccc23)=C1O [5B, 2,5-dihydroxy-3-(6-chloro-1H-indol-3-yl)-[1,4]-benzoquinone] | 99% | 2.4 µM | 92% | 81% | – | – | – | – |
| Cn1cc(C2=C(O)C(=O)C=C(O)C2=O)c2ccccc21 [2B, 2,5-dihydroxy-3-(1-methyl-1H-indol-3-yl)-[1,4]-benzoquinone] | 63% | 185 µM | 42% | 19% | – | – | – | – |
| O=C1C=C(O)C(=O)C(c2c[nH]c3cc(F)ccc23)=C1O [5A, 2,5-dihydroxy-3-(6-fluoro-1H-indol-3-yl)-[1,4]-benzoquinone] | 91% | 2 µM | 48% | 90% | 6.8 µM | – | – | – |
| O=C1C=C(O)C(=O)C(c2c[nH]c3c(Cl)cccc23)=C1O [5F, 2,5-dihydroxy-3-(7-chloro-1H-indol-3-yl)-[1,4]-benzoquinone] | 92% | 38 µM | 23% | 54% | – | – | – | – |
| Cc1ccccc1Cc1cccc2c(C3=C(O)C(=O)C=C(O)C3=O)c[nH]c12 [6F, 2,5-dihydroxy-3-[7-(2-methyl-benzyl)-1H-indol-3-yl]-[1,4]-benzoquinone] | 90% | 0.6 µM | 97% | 94% | 1.1 µM | – | – | – |
| O=C1C=C(O)C(=O)C(c2c[nH]c3ccc(F)cc23)=C1O [4B, 2,5-dihydroxy-3-(5-fluoro-1H-indol-3-yl)-[1,4]-benzoquinone] | 64% | 11.7 µM | 32% | 23% | – | – | – | – |
| O=C1C=C(O)C(=O)C(c2c[nH]c3c2ccc2ccccc23)=C1O [8C, 2,5-dihydroxy-3-(1H-benzo[g]indol-3-yl)-[1,4]-benzoquinone] | 98% | 2.8 µM | 79% | 75% | – | – | – | – |
| Cc1ccc2c(C3=C(O)C(=O)C=C(O)C3=O)c[nH]c2c1C [8B, 2,5-dihydroxy-3-(6,7-dimethyl-1H-indol-3-yl)-[1,4]-benzoquinone] | 90% | 12.8 µM | 32% | 20% | – | – | – | – |
| Cc1cccc2c(C3=C(O)C(=O)c4cccc(O)c4C3=O)c[nH]c12 [4E, 2,5-dihydoxy-3-(7-methyl-1H-indol-3-yl)-[1,4]naphthoquinone] | – | 69.3 µM | – | – | – | 10% | 0% | 0% |
| O=C1C=C(O)C(=O)C(c2c[nH]c3ccccc23)=C1O [2A, 2,5-dihydroxy-3(1H-indol-3-yl)-[1,4]-benzoquinone] | 55% | 14.2 µM | 75% | 69% | 16.5 µM | – | – | – |
| Cc1ccc2c(C3=C(O)C(=O)C=C(O)C3=O)c(C)[nH]c2c1 [7F, 2,5-dihydroxy-3-(2,6-dimethyl-1H-indol-3-yl)-[1,4]-benzoquinone] | 46% | 207 µM | 16% | 0% | – | – | – | – |
| O=C1C=C(O)C(=O)C(c2c[nH]c3ccc(Cl)cc23)=C1O [4C, 2,5-dihydroxy-3-(5-chloro-1H-indol-3-yl)-[1,4]-benzoquinone] | 95% | 2.3 µM | 32% | 45% | – | – | – | – |
| O=C1C=C(O)C(=O)C(c2c[nH]c3cccc(Cl)c23)=C1O [3E, 2,5-dihydroxy-3-(4-chloro-1H-indol-3-yl)-[1,4]-benzoquinone] | 67% | 3 µM | 21% | 0% | 8.4 µM | – | – | – |
| Cc1[nH]c2c(C)cccc2c1C1=C(O)C(=O)C=C(O)C1=O [7G, 2,5-dihydroxy-3-(2,7-dimethyl-1H-indol-3-yl)-[1,4]-benzoquinone] | 20% | 38.5 µM | 0% | 0% | – | – | – | – |
| O=C1C=C(O)C(=O)C(c2c[nH]c3c(Cc4ccccc4)cccc23)=C1O [6E, 2,5-dihydroxy-3-(7-benzyl-1H-indol-3-yl)-[1,4]-benzoquinone] | 98% | 1.7 µM | 97% | 98% | – | – | – | – |
| CC(C)c1[nH]c2ccccc2c1C1=C(O)C(=O)C=C(O)C1=O [2F, 2,5-dihydroxy-3-(2-isopropyl-1H-indol-3-yl)-[1,4]-benzoquinone] | 58% | 8.3 µM | 13% | 0% | – | – | – | – |
| O=C1C=C(O)C(=O)C(c2c[nH]c3ccc(Br)cc23)=C1O [4D, 2,5-dihydroxy-3-(5-bromo-1H-indol-3-yl)-[1,4]-benzoquinone] | 96% | 2.4 µM | 55% | 26% | – | – | – | – |
| CC(C)=CCC/C(C)=C/Cc1cccc2c(C3=C(O)C(=O)C=C(O)C3=O)c[nH]c12 [6C, 2,5-dihydroxy-3-(7-geranyl-1H-indol-3-yl)-[1,4]-benzoquinone] | 99% | 0.1 µM | 95% | 96% | 0.5 µM | – | – | – |
| O=C1C=C(O)C(=O)C(c2c[nH]c3cc(OCc4ccccc4)ccc23)=C1O [5C, 2,5-dihydroxy-3-(6-benzyloxy-1H-indol-3-yl)-[1,4]-benzoquinone] | 89% | 1.7 µM | 97% | 92% | – | – | – | – |
| Cc1[nH]c2ccc(Cl)cc2c1C1=C(O)C(=O)C=C(O)C1=O [7E, 2,5-dihydroxy-3-(2-methyl-5-chloro-1H-indol-3-yl)-[1,4]-benzoquinone] | 91% | 52.2 µM | 60% | 81% | – | – | – | – |
| O=C1C=C(O)C(=O)C(c2c[nH]c3c(OCc4ccccc4)cccc23)=C1O [7B, 2,5-dihydroxy-3-(7-benzyloxy-1H-indol-3-yl)-[1,4]-benzoquinone] | 98% | 1.6 µM | 97% | 85% | – | – | – | – |
| CC(C)(C)c1cccc2c(C3=C(O)C(=O)C=C(O)C3=O)c[nH]c12 [6G, 2,5-dihydroxy-3-(7-tert-butyl-1H-indol-3-yl)-[1,4]-benzoquinone] | 96% | 2.1 µM | 33% | 37% | – | – | – | – |
| COc1ccc2[nH]c(C)c(C3=C(O)C(=O)C(c4c(C(C)(C)C)[nH]c5ccccc45)=C(O)C3=O)c2c1 [10H, 2-(2-tert-butyl-1H-indol-3-yl)-3,6-dihydroxy-5-(2-methyl-5-methoxy-1H-indol-3-yl)-[1,4]-benzoquinone] | – | 11.5 µM | – | – | – | – | – | – |
| CC(C)(C)c1[nH]c2ccccc2c1C1=C(Cl)C(=O)C(c2c[nH]c3ccccc23)=C(O)C1=O [11F, 2-(2-tert-butyl-1H-indol-3-yl)-5-(1H-indol-3-yl)-3-chloro-6-hydroxy-[1,4]-benzoquinone] | – | 49.9 µM | – | – | – | – | – | – |
